The results in this text go back to PMC5411871 (African Journal of Traditional, Complementary, and …, 2016).

SMILES strings stand for the structures.

For the experiment, the target named is T1, Lipoxygenase (type I-B) (Glycine max, UniProt P08170).
T1 sequence (P08170 1-839): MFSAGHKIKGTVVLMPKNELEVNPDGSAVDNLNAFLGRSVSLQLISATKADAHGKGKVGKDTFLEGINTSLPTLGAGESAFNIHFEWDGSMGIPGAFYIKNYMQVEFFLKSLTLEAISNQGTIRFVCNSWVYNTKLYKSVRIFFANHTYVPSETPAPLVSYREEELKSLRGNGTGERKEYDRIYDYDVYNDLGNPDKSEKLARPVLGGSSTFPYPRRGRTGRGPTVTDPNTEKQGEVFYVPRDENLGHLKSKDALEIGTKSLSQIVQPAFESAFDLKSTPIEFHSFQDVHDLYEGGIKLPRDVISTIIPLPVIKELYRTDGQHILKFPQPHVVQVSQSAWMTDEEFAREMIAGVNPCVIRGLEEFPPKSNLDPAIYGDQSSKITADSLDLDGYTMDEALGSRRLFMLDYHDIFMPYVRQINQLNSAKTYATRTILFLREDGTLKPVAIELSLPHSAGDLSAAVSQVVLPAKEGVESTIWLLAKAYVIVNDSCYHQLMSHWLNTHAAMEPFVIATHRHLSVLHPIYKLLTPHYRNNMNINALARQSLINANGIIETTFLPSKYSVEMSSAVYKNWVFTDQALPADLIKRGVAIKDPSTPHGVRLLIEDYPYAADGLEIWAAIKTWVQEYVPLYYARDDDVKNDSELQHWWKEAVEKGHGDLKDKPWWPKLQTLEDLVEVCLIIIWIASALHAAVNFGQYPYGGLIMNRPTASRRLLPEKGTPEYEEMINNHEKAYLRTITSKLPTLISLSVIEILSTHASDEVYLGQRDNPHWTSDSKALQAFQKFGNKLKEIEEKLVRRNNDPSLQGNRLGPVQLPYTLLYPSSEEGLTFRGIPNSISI
Kind of experiment: absorbance at […] nm, linoleic acid oxidation. In kind it is biochemical.

`C[C@H]1C(=O)CC[C@@H]2[C@]1(C)CC[C@H]1[C@@]2(C)CC[C@@]2(C)[C@@H]3CC(C)(C)CC[C@]3(C)CC[C@]12C` [compound 1, friedelin]: half-maximal inhibition (IC50) required 57.3 µM.

In the case of `CC1(C)C[C@@H](O)[C@]2(C)CC[C@]3(C)C(=CC[C@@H]4[C@@]5(C)CC[C@H](O)C(C)(C)[C@@H]5CC[C@]43C)[C@@H]2C1` [compound 3, sopharadiol], the IC50 (commonly the point on the concentration scale where inhibition reaches its midpoint) is 54 µM.
